From patent US11708283B2, “Metal-chelating compositions and their use in methods of removing or inhibiting barium scale” (CORNELL UNIVERSITY, priority 2018, dated 2023)

Assays:
[1] = literature values (footnotes b, c); cited from earlier work
[2] = Recovery and reuse of macropa for BaSO4 dissolution
Method: The capacity for recovery and reuse of macropa post-BaSO4 dissolution was assessed qualitatively. FIG. 7 schematically depicts a process for ligand recovery and reuse. A solution of macropa-dissolved BaSO4 was acidified to release the Ba^2+ from the ligand as BaSO4. After filtration of the precipitated BaSO4 and basification of the solution, the recovered ligand was successfully reused for another cycle of BaSO4 dissolution. More specifically, a sample of macropa-dissolved BaSO4 (9.66 mM macropa, 8.74 mM Ba(NO3)2, 26.04 mM Na2SO4) was acidified to pH 1 with concentrated HCl to protonate the ligand, inducing Ba^2+ decomplexation and precipitation as BaSO4. The macropa solution was isolated by filtration, basified to pH 8 with 2 M NaOH, and combined with another portion of BaSO4. Within 40 minutes, no visible precipitate remained in the vial, signaling that the recycled macropa dissolved all the BaSO4.
In other experiments, an initial solution of macropa-dissolved BaSO4 was prepared by stirring at 450 RPM a suspension containing BaSO4 (8.74 mM Ba(NO3)2; 26.04 mM Na2SO4), macropa (9.66 mM), and 2M NaOH (35 μL) in 1M NaHCO3 (326 μL). The final volume was 1035 μL and the pH was 8. […] The solution was adjusted to pH 1 (by litmus paper) by adding concentrated HCl (3 drops). The resultant suspension was stirred for 10 minutes and then filtered through a nylon syringe filter (0.22 μm). The syringe filter was rinsed with 0.1 M HCl (2×100 μL) to facilitate full recovery of the ligand. The pH of the filtrate was carefully adjusted back to pH 8 (by litmus paper) with 2 M NaOH. To this recovered solution of macropa was added another portion of BaSO4 (0.009 mmol BaNO3, 0.027 mmol Na2SO4). The suspension was stirred at 450 RPM and RT. The dissolution of BaSO4 was monitored visually until all of the BaSO4 was dissolved, marking the completion of a full cycle of ligand recovery and reuse. Another cycle was then initiated via the addition of concentrated HCl to the solution. A total of five cycles were performed and the time to full dissolution of BaSO4 was recorded. […] The precipitate may be attributed to a small amount of BaSO4 that remains undissolved as a consequence of ligand loss over time, which occurs because aliquots of the solution are removed to assess the pH during the recovery and reuse process.

[3] = Aqueous solubility of ligand (stock solution preparation); type: physicochemical; conditions: stock solution could not be prepared
Method: Stock solutions of macropa and macropaquin were prepared in H2O. […] The exact ligand concentrations were determined from the potentiometric titration curves with KOH. Protonation equilibria of macropa^2− and macropaquin^2− were determined by adding standardized KOH to a solution (20 mL) containing ligand (˜0.02 mmol), 0.1 M HCl (0.1 mmol), and 1 M KCl (1.9 mmol). The titration method employed a 0.1 mV/min drift limit with a maximum wait time of 90 sec between addition of base and measurement. At least 70 data points were collected over the pH range of 2.5-10.5 (macropa) or 2.5-11.3 (macropaquin). The protonation constants, defined in Eq. 1, were calculated from the average of at least 4 independent titrations using the appropriate software.

In the case of `O=C(O)CN1CCN(CC(=O)O)CCN(CC(=O)O)CCN(CC(=O)O)CC1` [DOTA, reference compound], the “log KBaL” value [1] is listed as 11.75.
In the case of `O=C(O)c1cccc(CN2CCOCCOCCN(Cc3cccc(C(=O)O)n3)CCOCCOCC2)n1` [macropa, 6,6-((1,4,10,13-tetraoxa-7,16-diazacyclooctadecane-7,16-diyl)bis(methylene))dipicolinic acid], the “time to complete dissolution of BaSO4 (initial solution)” value ([2]; 9.66 mM macropa, 8.74 mM Ba(NO3)2, 26.04 mM Na2SO4, pH 8) is reported as 17 min, the “time until no visible BaSO4 precipitate remained with recycled ligand” value ([2]; first reuse, pH 8) is reported as no more than 40 min and the “efficacy on reuse four more times” value ([2]; ligand recovered and reused) is reported as “negligible loss in efficacy or speed of dissolution”. The “BaSO4 dissolution during the 4th and 5th cycles” value ([2]; recovery and reuse cycles) was “dissolution of most of the BaSO4 was rapidly achieved within the first hour”.
In the case of `O=S(=O)(O)c1ccc(O)c2nc(CN3CCOCCOCCN(Cc4ccc5c(S(=O)(=O)O)ccc(O)c5n4)CCOCCOCC3)ccc12` [macroquin-SO3, 2,2′-((1,4,10,13-tetraoxa-7,16-diazacyclooctadecane-7,16-diyl)bis(methylene))bis(8-hydroxyquinoline-5-sulfonic acid)], the aqueous solubility [3] is reported as “poor aqueous solubility”.
